Target: T1, MAT2A homodimer (Homo sapiens, UniProt P31153)
T1 construct: inferred from Ni sepharose purification and imidazole elution; made in house; host or cells: Sf9 insect cells, recombinant baculovirus (Bac to Bac, pFASTBAC1)
Test: Biochemical assay: inhibition of MAT2A (phosphate release, PiColorLock Gold)
Settings: MAT2A IC50 score; read-out: Enzyme Inhibition (Example 275)
Method: Mat2A protein was expressed by recombinant baculovirus in SF9 infected cells using the Bac to Bac system cloned into the pFASTBAC1 vector (Invitrogen, Carlsbad, Calif.). Recombinant MAT2A was isolated from the cell lysate of 150 g of infected cells using HP Ni sepharose column chromatography. Recombinant MAT2A homodimer was eluted with 250 and 500 mM imidazole, and fractions containing MAT2A were identified by sodium dodecyl sulfate polyacrylamide gel electrophoresis and pooled.
For determination of the inhibitory potency of compounds against the MAT2A homodimer, protein was diluted to […] in assay buffer (50 mM Tris, pH 8.0, 50 mM KCl, 15 mM MgCl2, 0.3 mM EDTA, 0.005% [w/v] bovine serum albumin [BSA]). Test compound was prepared in 100% dimethyl sulfoxide (DMSO) at 50× the desired final concentration. […] of compound dilution was added to 40 μL of enzyme dilution and the mixture was allowed to equilibrate for 60 minutes at 25° C. The enzymatic assay was initiated by the addition of 10 μL of substrate mix (500 μM ATP, pH 7.0, 400 μM L-methionine in 1× assay buffer), and the mixture was incubated for a further 60 minutes at 25° C. The reaction was halted and the liberated phosphate released by the enzyme in stoichiometric amounts by the production of S-adenosyl methionine (SAM) was measured using the PiColorLock Gold kit (Innova Biosciences, UK). Absolute product amounts were determined by comparison to a standard curve of potassium phosphate buffer, pH 8.0.

T1 sequence (P31153 whole entry): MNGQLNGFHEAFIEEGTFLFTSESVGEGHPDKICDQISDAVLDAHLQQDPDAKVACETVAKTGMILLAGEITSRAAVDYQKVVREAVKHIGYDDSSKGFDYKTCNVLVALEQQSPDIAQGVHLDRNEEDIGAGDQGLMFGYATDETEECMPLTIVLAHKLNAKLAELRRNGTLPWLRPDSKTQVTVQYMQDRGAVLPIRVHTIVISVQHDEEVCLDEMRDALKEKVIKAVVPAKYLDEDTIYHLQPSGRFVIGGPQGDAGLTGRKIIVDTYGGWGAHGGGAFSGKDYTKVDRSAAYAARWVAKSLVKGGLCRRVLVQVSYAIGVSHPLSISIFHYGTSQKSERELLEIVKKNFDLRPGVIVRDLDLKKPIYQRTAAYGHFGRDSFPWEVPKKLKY

Row | Structure (SMILES) | IC50 [µM]
1 | O=c1c(-c2ccc(Cl)cc2)c2nc(NCC(F)(F)F)ncc2cn1-c1ccc2nncn2c1 [Example 136, 6-([1,2,4]triazolo[4,3-a]pyridin-6-yl)-8-(4-chlorophenyl)-2-((2,2,2-trifluoroethyl)amino)pyrido[4,3-d]pyrimidin-7(6H)-one] | 0.1 to 1
2 | Cc1nc2cc(-n3cc4cnc(NCC(F)(F)F)nc4c(-c4ccc(Cl)cc4)c3=O)ccc2o1 [Example 138, 8-(4-chlorophenyl)-6-(2-methylbenzo[d]oxazol-5-yl)-2-((2,2,2-trifluoroethyl)amino)pyrido[4,3-d]pyrimidin-7(6H)-one] | 0.1 to 1
3 | Cn1cc(-n2cc3cnc(NCC(F)(F)F)nc3c(-c3ccc(Cl)cc3)c2=O)ccc1=O [Example 140, 8-(4-chlorophenyl)-6-(1-methyl-6-oxo-1,6-dihydropyridin-3-yl)-2-((2,2,2-trifluoroethyl)amino)pyrido[4,3-d]pyrimidin-7(6H)-one] | 0.1 to 1
4 | O=c1c(-c2ccc(Cl)cc2)c2nc(NCC(F)(F)F)ncc2cn1-c1ccc2n[nH]cc2c1 [Example 142, 8-(4-chlorophenyl)-6-(2H-indazol-5-yl)-2-((2,2,2-trifluoroethyl)amino)pyrido[4,3-d]pyrimidin-7(6H)-one] | 0.1 to 1
5 | COc1ccc(-c2c(=O)n(-c3ccc4ncncc4c3)cc3cnc(NCC(F)(F)F)nc23)cc1 [Example 146, 8-(4-methoxyphenyl)-6-(quinazolin-6-yl)-2-((2,2,2-trifluoroethyl)amino)pyrido[4,3-d]pyrimidin-7(6H)-one] | 0.1 to 1
6 | O=c1c(-c2ccc(C3CC3)cc2)c2nc(NCC(F)(F)F)ncc2cn1-c1ccc2nc(C(F)(F)F)ccc2c1 [Example 163, 8-(4-cyclopropylphenyl)-2-((2,2,2-trifluoroethyl)amino)-6-(2-(trifluoromethyl)quinolin-6-yl)pyrido[4,3-d]pyrimidin-7(6H)-one] | 1 to 10

Second part, the compound after the results:

Row | IC50 [µM] | Structure (SMILES)
7 | 0.1 to 1 | Cn1cc2cc(-n3cc4ccc(CS(C)(=O)=O)nc4c(-c4ccc(Cl)cc4)c3=O)ccc2n1 [Example 135-A, 8-(4-chlorophenyl)-6-(2-methyl-2H-indazol-5-yl)-2-((methylsulfonyl)methyl)-1,6-naphthyridin-7(6H)-one]
8 | < 0.1 | COCc1ccc2cn(-c3ccc4nn(C)cc4c3)c(=O)c(-c3ccc(Cl)cc3)c2n1 [Example 136-A, 8-(4-chlorophenyl)-2-(methoxymethyl)-6-(2-methyl-2H-indazol-5-yl)-1,6-naphthyridin-7(6H)-one]
9 | < 0.1 | Cc1nc2cc(-n3cc4cnc(NCC(F)(F)F)nc4c(-c4ccc(OC(F)F)cc4)c3=O)ccc2o1 [Example 149, 8-(4-(difluoromethoxy)phenyl)-6-(2-methylbenzo[d]oxazol-5-yl)-2-((2,2,2-trifluoroethyl)amino)pyrido[4,3-d]pyrimidin-7(6H)-one]
10 | < 0.1 | O=c1c(-c2ccc(OC(F)F)cc2)c2nc(NCC(F)(F)F)ncc2cn1-c1ccc2nn(C3CC3)cc2c1 [Example 154, 6-(2-cyclopropyl-2H-indazol-5-yl)-8-(4-(difluoromethoxy)phenyl)-2-((2,2,2-trifluoroethyl)amino)pyrido[4,3-d]pyrimidin-7(6H)-one]
11 | < 0.1 | Cc1ccc2cc(-n3cc4cnc(NCC(F)(F)F)nc4c(-c4ccc(C5CC5)cc4)c3=O)ccc2n1 [Example 162, 8-(4-cyclopropylphenyl)-6-(2-methylquinolin-6-yl)-2-((2,2,2-trifluoroethyl)amino)pyrido[4,3-d]pyrimidin-7(6H)-one]
12 | < 0.1 | O=c1c(-c2ccc(C3CC3)cc2)c2nc(NCC(F)(F)F)ncc2cn1-c1ccc2c(c1)CCO2 [Example 164, 8-(4-cyclopropylphenyl)-6-(2,3-dihydrobenzofuran-5-yl)-2-((2,2,2-trifluoroethyl)amino)pyrido[4,3-d]pyrimidin-7(6H)-one]
13 | < 0.1 | O=c1c(-c2ccc(C3CC3)cc2)c2nc(NCC(F)(F)F)ncc2cn1-c1ccc2nccn2c1 [Example 165, 8-(4-cyclopropylphenyl)-6-(imidazo[1,2-a]pyridin-6-yl)-2-((2,2,2-trifluoroethyl)amino)pyrido[4,3-d]pyrimidin-7(6)-one]

From US11524960B2, “Heterobicyclic inhibitors of MAT2A and methods of use for treating cancer” (AGIOS PHARMACEUTICALS, INC., priority 2018, dated 2022)
